Measurements taken from patent publication US7115574B2, “System and method for support legacy operating system booting in a legacy-free system” (priority 2001, dated 2006).
“And” between values parts separate entries of the source, which are not always exact repeats. Equal values may be shown once.

Assays:
[1] = tested on: C. albicans; test: cAMP content of C. albicans (EIA); format: cell-based; conditions: 10^−6 M; for cAMP content in the yeast: 3 minutes, permeabilized C. albicans
Procedure: C. albicans (10^6/ml), permeabilized with toluene/ethanol, were incubated at 37° C. with continuous shaking in the presence of 10^−6 M α-MSH(1-13) (SEQ ID NO: 3), (11-13), (SEQ ID NO: 1), forskolin, an agent known to increase intracellular cAMP, or in medium alone. The reaction was stopped after 3 minutes by the addition of ice cold ethanol, cAMP was measured in duplicate using a commercial enzyme immunoassay (EIA) kit (Amersham, United Kingdom) after extraction via the liquid-phase method according to manufacturer's instructions. The effect of forskolin (10^−6 M) on C. albicans colony formation was determined using the same procedure as for α-MSH peptides.

[2] = tested on: inflammation induced in the hind paw by kappa carrageenan; test: Kappa carrageenan hind paw inflammation in spinal cord intact and transected mice; format: in vivo, BALB/c mice; conditions: for effect on carrageenan-induced paw swelling: spinal cord transected mice; for inhibition of inflammation induced in the hind paw: central administration, spinal cord intact mice
Procedure: Because surgical dissection of trigeminal structures that innervate the ear of the mouse is very difficult, tests to learn whether descending neural pathways are essential to the anti-inflammatory activity of centrally administered α-MSH peptides were performed in mice with inflammation induced in a hind paw. In these experiments, each animal was anesthetized with pentobarbital sodium solution as above. Baseline foot pad thickness of both hind paws was measured with a spring-loaded micrometer (Swiss Precision Instruments, Los Angeles, Calif.). Paw thickness was expressed in units of 10^−3 cm; average thickness of unstimulated paws was 171.5×10^−3 cm across shipments of animals. Kappa carrageenan (Sigma) dissolved in saline (0.05%, 20 μl) was injected (28 gauge allergy test syringe) into one footpad, and saline (20 μl) was injected into the other. For the analyses, the increase in thickness of the control saline-injected paw of each animal was subtracted from that of the carrageenan-injected paw, to eliminate the influence of mechanical injury and volume of the injected fluid. […] Treatment with the locally acting steroid reduced swelling up to 29% (average, relative to saline controls) at 4.5 hr. after carrageenan.
However, a standardized crushing of lumbar vertebrae with a hemostat (Kelly) was effective in severing the cord; no deaths were caused by this treatment. […] The experiments were limited to 4.5 hr to reduce problems of bowel and bladder dysfunction. Immediately after the 4.5 hr measurements all mice were killed with an overdose of sodium pentobarbital.
Because of the size of the experiments and the requirement for several shipments of animals over time, several experiments were performed, each with complete treatment and control groups drawn from the same shipment of mice. Omnibus analysis of variance techniques (Dynastat, Washington, D.C.) were used to test overall differences among group means. Tukey's protected t test was used to compare individual means. Probability values of <0.05 were considered significant.

[3] = tested on: N9 clone of murine microglial cells; test: TNF-α, IL-6 and NO2− production by LPS+IFN-γ activated microglia; format: cell-based; conditions: for concentration most effective at inhibiting cytokine formation: LPS+IFN-γ stimulated microglia, 1-100 μM tested
Procedure: See Delgado, R., Carlin, A., Alraghi, L., Demitri, M., Meda, L., Galimberti, D., Pierluigi, B., Lipton, J. M., Catania, A., Melanocortin Peptides Inhibit Production of Proinflammatory Cytokines and Nitric Oxide by Activated Microglia, 63 J. of Leukocyte Biol. 740 (1998). […] The N9 clone of murine microglial cells was obtained by immortalization of embryonic brain cultures with the 3RV retrovirus carrying an activated v-myconcogene. N9 cells were cultured in T-75-cm^2 culture flasks (Coming, Cambridge, Mass.) and maintained at 37° C. in a humidified incubator under 5% CO2 atmosphere in RPMI 1640 supplemented with 2 mM L-glutamine, 50 U/mL penicillin G, 50 μg/mL streptomycin sulfate (GIBCO-BBL, Paisley, UK), and 10% heat-inactivated fetal bovine serum (FBS, Hyclone Lab, Inc., Logan, Utah) until experiments were performed. Cells were used between the first and the tenth passage.
Sub-confluent microglial cells were washed twice with phosphate-buffered saline (PBS) and incubated with trypsin 0.025% and ethylenediaminetetraacetate (EDTA) 0.02% without calcium and magnesium for 3 min. at 37° C. to detach the cells from the culture flask. Cells were then resuspended in medium and incubated in 24-well tissue-culture plates at a concentration of 2×10^5 cells/mL for 16 h in a humidified incubator (37° C., 5% CO2). Growth medium was removed and cell monolayers were stimulated with 10 ng/mL lipopolysaccharide (LPS, from Escherichia coli 055:B5, Sigma Chemical Co., St. Louis, Mo.) plus 1 U/ml, murine IFN-γ (Sigma). […] Although production of TNF-α and NO was reduced to even much lower concentrations of the peptides, concentrations in the micromolar range had the most profound and consistent inhibitory effects. […] Cell-free supernatants were harvested after 24 h incubation and assayed for TNF-α, IL-6 and NO2. Viability of cells was assessed by trypan blue exclusion for each experimental condition: it was consistently >98%. Dexamethasone (Sigma) and N-monomethyl-L-arginine (L-NMMA: 100 μM, Cayman Chemical, Ann Arbor, Mich.) were used as positive controls for TNF-α and NO inhibition, respectively. Tests were repeated in at least three independent experiments and assays were performed in triplicate.
TNF-α bioactivity was measured in supernatants of cell cultures by standard cytotoxicity assay using L929 cells and recombinant human TNF-α (Sigma) as standard. The detection limit of the bioassay was 20 pg/mL. IL-6 was measured using a commercial murine enzyme-linked immunosorbent assay (ELISA: RPN 2714, Amersham, Little Chalfont, UK).
NO is rapidly oxidized to nitrite in culture medium, and nitrite (NO2^−) concentration is an indicator of NO production. Cell-free culture supernatants were mixed with equal amounts of Griess reagent (1% sulfanilamide, 0.1% naphtylethylenediamide in 2.5% phosphoric acid) in wells of 96-well ELISA plates. Samples were incubated at room temperature for 10 min and absorbance was measured at 540 nm with the use of a microplate reader. Nitrite […] concentrations were calculated using a sodium nitrite standard curve.
Effects of melanocortin peptides on cytokine and NO production were evaluated by repeated measures analysis of variance followed by Dunnet's test for specific comparisons. Probability values less than 0.05 were considered significant.

[4] = tested on: N9 clone of murine microglial cells; test: Northern blot of TNF-α and iNOS mRNA in activated microglia; format: cell-based; conditions: peptide prior to LPS and IFN-γ
Procedure: Total cellular RNA was extracted from 10^6 adherent microglial cells plated in six-well tissue culture plates (Corning). Electrophoresis of RNA samples (10 μg/lane) was performed in 1% agarose/2.2 M formaldehyde gels and the gels subsequently blotted onto nylon filters by capillary action and baked for 2 h before prehybridization. The cDNA fragments encoding murine TNF-α and mouse macrophage iNOS were ^32P-labeled using the Ready-To-Go DNA Labeling Kit (Pharmacia, Uppsala, Sweden) before hybridization of nylon filters and autoradiography. Blots were subsequently rehybridized with human glyceraldehyde-3-phosphate dehydrogenase (G-3-PDH) cDNA probe as an internal control (Clontech Laboratories, Inc., Palo Alto, Calif.).

[5] = microglia stimulated with LPS+IFN-γ for 24 hr, micromolar concentrations

Substance: Ac-Lys-Pro-Val-NH2 [α-MSH(11-13)]
- increase in cAMP relative to equimolar forskolin [1]: same order of magnitude
- cAMP content in the yeast [1]: enhanced cAMP content
- effect on carrageenan-induced paw swelling ([2]; given intraperitoneally): even more effective at reducing swelling
- effect on carrageenan-induced paw swelling ([2]; given intraperitoneally, listed as tripeptide): marked inhibitory effect on inflammation
- concentration most effective at inhibiting cytokine formation [3]: 1 µM
- transcription levels (mRNA) for TNF-α and iNOS [4]: decrease in transcription levels

Substance: SYSMEHFRWGKPV [α-MSH(1-13)]
- cAMP content in the yeast [1]: enhanced cAMP content
- inhibition of inflammation induced in the hind paw ([2]; 3 hr): 57%
- inhibition of inflammation induced in the hind paw ([2]; 4.5 hr): 29%
- effect on carrageenan-induced paw swelling ([2]; centrally injected): had no effect on paw swelling
- effect on carrageenan-induced paw swelling ([2]; given intraperitoneally): significant, although smaller, inhibitory effect
- concentration most effective at inhibiting cytokine formation [3]: 10 µM
- reduction of production of IL-6 [3, 5]: 31% and 50%
- reduction of production of NO2^− [3, 5]: 42% and 40%
- reduction of production of TNF-α [3, 5]: 43% and 45%
- transcription levels (mRNA) for TNF-α and iNOS [4]: decrease in transcription levels
